Source: patent publication US20200022967A1, “Use of 2-carboxamide cycloamino urea derivatives in the treatment of EGFR dependent diseases or diseases that have acquired resistance to agents that target EGFR family members” (Novartis AG, priority 2010, published 2020)

Columns and labels:
[1] = Body weight nadir and deaths in NCI-N87 lapatinib study (Example 6)
Protocol: Treatments started eight days post tumor cell implantation and lasted for 59 consecutive days or until tumor volume=1000 mm^3. […] For the b.i.d. dosing schedule, the first dose was given p.m. on Day 1 and last dose a.m. on Day 22. […] Body weights were recorded on Days 1-5, on each treatment day (except weekends), and twice weekly thereafter until end of the study.

[2] = tested on: NCI-N87 tumors; assay: NCI-N87 xenograft in CB17 SCID mice, Compound A alone and with lapatinib (Example 6); assay type: in vivo; details: for Median TTE: control 26.2, vs G1 ***; for Mean Tumor Volume (no. animals, n) Day 59: n=1
Protocol: The NCI-N87 cells were harvested with 5× trypsin. Eight days after tumor implantation (on Day 1 of the study), mice with an individual tumor volume of 88-196 mm^3 were sorted into 10 groups of ten mice with a group mean tumor volume of 143-149 mm^3.
Where applicable, data is presented as mean±SEM. Each animal was euthanized when its neoplasm reached the endpoint volume (1000 mm^3), or on the last day of the study (Day 59). Time to endpoint (TTE) is calculated by the equation: TTE=(log10(endpoint volume)−b)/m, where TTE is expressed in days, endpoint volume is in mm3, b is the intercept and m is the slope of the line obtained by linear regression of a log-transformed tumor growth data set. Treatment efficacy was determined from Tumor Growth Delay (TGD), which was defined as the increase in the median time to endpoint (TTE) for a treatment group compared to the control group (TGD=T−C), expressed in days, or as a percentage of the median TTE of the control group (% TGD=((T−C)/C)×100), wherein T=median TTE for a treatment group and C=median TTE for the designated control group.
Statistical and graphical analyses was performed with Prism 3.03 (GraphPad) for Windows. For all tests, the level of significance of differences was done using ANOVA, with Bartlett's test; and a post-hoc Dunnett's multiple comparison test compared the mean change for each drub-treated group to the mean for Group 1. Survival was analyzed by the Kaplan-Meier method. The logrank test was employed to analyze the significance of the difference between the overall survival experiences of two groups, based on time to endpoint (TTE) values. The two-tailed statistical analyses were conducted at P=0.05. Prism summarizes test results as not significant (ns) at P>0.05, significant (symbolized by “*”) at 0.01<P<0.05, very significant (symbolized by “**”) at 0.001<P<0.01, and extremely significant (symbolized by “***”) at P<0.001.

[3] = tested on: HBCx-5 xenograft tumor; assay: HBCx-5 breast cancer xenograft, antitumor activity (Example 5); assay type: in vivo, mice; details: capecitabine 40 mg/kg single agent p.o., five times per week, two cycles; p<0.001
Protocol: Compound A was suspended at mg/ml in 0.5% methylcellulose (Sigma Aldrich, St. Louis, Mo.). It was homogenized by stirring vortexing and sonication. The suspension was stored at 4° C. for 7 days protected from light. […] Stock solution at 21 mg/ml was diluted just before administration at 1 mg/ml with sterile water for injection. Capecitabine (Xeloda®, Roche) at […] was kept at 4° C. protected from light. Capecitabine pellets were crushed and suspended in NaCl 0.9%.
Dose was body weight adjusted at each injection.
Capecitabine was administered by oral gavage (p.o.) at […], five times per week for two weeks (i.e., five consecutive dosing days/week). After a one week rest, a second treatment cycle was performed.

[4] = Body weight loss in HBCx-5 xenograft study (Example 5); details: capecitabine single agent; significant and transient
Protocol: Experiments were performed in female HSD: athymic nude-Foxn1nu mice approximately 8-10 weeks of age and weighing approximately 19-25 grams. The mice were allowed to acclimate with access to food and water ad libitum for 6 days prior to the study. When body weight loss reaches 15% compared to the first day of treatment, DietGel® was provided to the animals.
The mice were divided into five groups each comprising ten mice. Treatments were initiated 34 days post-implantation of the HBCx-5 xenograft tumor. […] For xenograft implantation, the mice were anesthetized with 100 mg/kg ketamine hydrochloride and 10 mg/kg xylazine. Using asceptic technique, the mice were grafted in interscapular with 3 mm on 3 mm tumor fragment. […] Tumors were measured with calipers three times per week at the start of dosing. Tumors were calculated using the formula: =width^2×length/2. Tumor size and body weight were measured three times per week during the treatment period. The planned endpoints for the experiment were a treatment phase of six weeks and no follow-up phase.
Antitumor activity is expressed as T/C % (mean change of tumor volume of treated animals/mean change of tumor volume of control animals)×100. Tumor volume and relative body weight were used for statistical analysis. Group comparisons were performed using a Mann Whitney non parametric test between treated group and control group.

[5] = Group 4 (10 animals): lapatinib 50 mg/kg p.o. b.i.d.
[6] = Group 5 (10 animals): lapatinib 100 mg/kg p.o. once daily
[7] = Group 6: lapatinib 150 mg/kg p.o. once daily
[8] = Group 4: lapatinib 50 mg/kg p.o. b.i.d.
[9] = Group 5: lapatinib 100 mg/kg p.o. once daily
[10] = Group 6 (9 animals): lapatinib 150 mg/kg p.o. once daily

In the case of `CS(=O)(=O)CCNCc1ccc(-c2ccc3ncnc(Nc4ccc(OCc5cccc(F)c5)c(Cl)c4)c3c2)o1` [lapatinib], the “Deaths (TR/NTR)” value [1, 5] is reported as 0, the “Deaths (TR/NTR)” value [1, 6] is reported as 0 and the “Deaths NTR = non-treatment related” value [1, 7] is reported as “NTR: 1”. The “Deaths TR = treatment-related” value [1, 7] was “TR: 0”, the “Regressions CR” value [2, 5] was “CR: 0” and the “Regressions PR” value [2, 5] was “PR: 0,”. For the same molecule, the “Median TTE” value ([2]; Group 4 (10 animals): lapatinib 50 mg/kg p.o. b.i.d. for 21 days) was 47.7 days, the “% TGD” value [2, 8] was 66% and the “Mean Tumor Volume (no. animals, n) Day 59” value [2, 8] was 608 (1). The “Regressions CR” value [2, 6] was “CR: 0”, the “Regressions PR” value [2, 6] was “PR: 0,” and the “% TGD” value [2, 9] was 82%. For the same molecule, the T-C [2, 9] was 16.4 days, the “Mean Tumor Volume (no. animals, n) Day 59” value [2, 9] was 750 (1) and the “Regressions CR” value [2, 10] was “CR: 0”. For the same molecule, the “Regressions PR” value [2, 10] was “PR: 1,”, the “Median TTE” value ([2]; Group 6 (9 animals): lapatinib 150 mg/kg p.o. once daily for 21 days) was 50.6 days and the “% TGD” value [2, 7] was 63%. It also gave a T-C [2, 7] of 24.4 days.

`CCCCCOC(=O)Nc1nc(=O)n([C@@H]2O[C@H](C)[C@@H](O)[C@H]2O)cc1F` [Capecitabine, reference compound] showed a T/C [3] of 9.03% and a body weight loss [4] of 9.1%.
